According to patent US20260115139A1, “Amino Acid-Containing Ionizable Lipids for the Delivery of Therapeutic Agents” (NanoVation Therapeutics Inc., priority 2022, published 2026):

Key:
[1] = delivery of siRNA; background statement; cited from earlier work
liver = assay: In vivo delivery of luciferase mRNA LNPs, luminescence in liver; settings: LNP 50/10/38.5/1.5 mol % ionizable lipid/DSPC/chol/PEG-DMG, N/P=6, luciferase mRNA 1 mg/kg intravenous, CD-1 mice, 4 hours post-injection
Experimental: The mRNA dose was 1 mg/kg.

Compound | siRNA required compared with KC2 [1] | luminescence intensity per mg liver compared with the MC3 benchmark (lipid 1) (liver)
CCCCC/C=C\C/C=C\CCCCCCCCC(CCCCCCCC/C=C\C/C=C\CCCCC)OC(=O)CCCN(C)C [lipid 1] | about 3 times less | 
CCCCCCCCC(CCCCCC)CC(=O)N(C)CC(=O)OCCCCCC(CCCCCOC(=O)C(CCCCCC)CCCCCCCC)N(C)CCCCO (stereo not shown) [lipid 27, 11-((N-(3-Hexylundecanoyl)-N-methylglycyl)oxy)-6-((4-hydroxybutyl)(methyl)-amino)-undecyl 2-hexyldecanoate] |  | higher
CCCCCCCCC(CCCCCC)C(=O)N(C)CC(=O)OCCCCCC(CCCCCOC(=O)CN(C)C(=O)C(CCCCCC)CCCCCCCC)OC(=O)CCCC(=O)OCCCN(C)C (stereo not shown) [lipid 19, 9,31-dihexyl-11,29-dimethyl-10,13,27,30-tetraoxo-14,26-dioxa-11,29-diazanonatriacon-tan-20-yl (3-(dimethylamino)propyl) glutarate] |  | higher
CCCCCCCCC(CCCCCC)C(=O)OCCCCCC(CCCCCOC(=O)CN(C)C(=O)CC(CCCCCCC)CCCCCCC)N(C)CCCCO (stereo not shown) [lipid 25, 11-((N-(3-Heptyldecanoyl)-N-methylglycyl)oxy)-6-((4-hydroxybutyl)(methyl)amino)-undecyl 2-hexyldecanoate] |  | higher
CCCCCCCCC(CCCCCC)C(=O)N(C)CC(=O)OCCCCCC1(CCCCCOC(=O)CN(C)C(=O)C(CCCCCC)CCCCCCCC)OCC(CCOC(=O)CCCN(C)C)O1 (stereo not shown) [lipid 17, (4-(2-((4-(dimethylamino)butanoyl)oxy)ethyl)-1,3-dioxolane-2,2-diyl)bis(pentane-5,1-diyl) bis(2-(2-hexyl-N-methyldecanamido)acetate)] |  | higher
CCCCCCCCC(CCCCCC)C(=O)OCCCCCC(CCCCCOC(=O)CN(C)C(=O)C(CCCCCC)CCCCCCCC)N(C)CCO (stereo not shown) [lipid 24, 11-((N-(2-Hexyldecanoyl)-N-methylglycyl)oxy)-6-((2-hydroxyethyl)(methyl)amino)-undecyl 2-hexyldecanoate] |  | higher
CCCCCCCCC(CCCCCC)C(=O)OCCCCCC(CCCCCOC(=O)CN(C)C(=O)C(CCCCCC)CCCCCCCC)OC(=O)CCCN(C)C (stereo not shown) [lipid 6, 6-((4-(Dimethylamino)butanoyl)oxy)-11-((N-(2-hexyldecanoyl)-N-methylglycyl)oxy)-undecyl 2-hexyldecanoate] |  | higher
CCCCCCCCC(CCCCCC)C(=O)OCCCCCC(CCCCCO)N(C)CCCCOC(=O)CN(C)C(=O)C(CCCCCC)CCCCCCCC (stereo not shown) [lipid 36, 6-((4-((N-(2-Hexyldecanoyl)-N-methylglycyl)oxy)butyl)(methyl)amino)-11-hydroxy-undecyl 2-hexyldecanoate] |  | higher
CCCCCCCCC(CCCCCC)C(=O)OCCCCCC(CCCCCOC(=O)CN(C)C(=O)C(CCCCCC)CCCCCCCC)N(C)CCCO (stereo not shown) [lipid 23, 11-((N-(2-Hexyldecanoyl)-N-methylglycyl)oxy)-6-((3-hydroxypropyl)(methyl)amino)-undecyl 2-hexyldecanoate] |  | higher
CCCCCCCCCC(=O)OCCCCCC(CCCCCOC(=O)CN(C)C(=O)CC(CCCCCC)CCCCCCCC)N(C)CCCCO (stereo not shown) [lipid 33, 11-((N-(3-Hexylundecanoyl)-N-methylglycyl)oxy)-6-((4-hydroxybutyl)(methyl)-amino)-undecyl decanoate] |  | higher
